The text below walks through data of ChEMBL document CHEMBL1909046, “DrugMatrix in vitro pharmacology data”.

Data set [1] is described as follows: DRUGMATRIX: ATPase, Na+/K+ enzyme inhibition (substrate: ATP). Format: tissue-based, Sus scrofa, Heart. Conditions: Not Active = under 50% inhibition at 10 µM.
A further data set has as its target Histamine H2 receptor (Homo sapiens, UniProt P25021). It is filed as cell membranes, CHO-K1, Membrane. Also: in other assays of this panel Not Active means under 50% inhibition at 10 µM.
Data set [2] concerns the target T1, Muscarinic acetylcholine receptor M2 (Homo sapiens, UniProt P08172). Also: in other assays of this panel Not Active means under 50% inhibition at 10 µM.
T1 sequence (P08172 whole entry): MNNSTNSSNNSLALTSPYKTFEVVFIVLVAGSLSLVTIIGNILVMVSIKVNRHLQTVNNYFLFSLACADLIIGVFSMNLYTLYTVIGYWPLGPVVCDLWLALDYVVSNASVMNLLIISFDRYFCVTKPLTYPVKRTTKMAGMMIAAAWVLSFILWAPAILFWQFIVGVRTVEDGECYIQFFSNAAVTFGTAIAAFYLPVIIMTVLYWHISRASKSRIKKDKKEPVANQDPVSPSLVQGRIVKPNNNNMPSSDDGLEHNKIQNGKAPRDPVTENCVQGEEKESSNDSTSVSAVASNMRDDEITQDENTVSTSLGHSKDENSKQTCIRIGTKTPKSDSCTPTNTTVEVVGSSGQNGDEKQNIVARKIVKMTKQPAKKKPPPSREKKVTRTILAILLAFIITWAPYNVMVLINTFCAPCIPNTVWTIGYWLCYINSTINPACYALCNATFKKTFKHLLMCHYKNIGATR
It is filed as cell membranes, CHO-K1, Membrane.

Data set [3] concerns the target T2, Neuropeptide Y receptor type 2 (Homo sapiens, UniProt P49146). Also: in other assays of this panel Not Active means under 50% inhibition at 10 µM.
T2 sequence (P49146 whole entry): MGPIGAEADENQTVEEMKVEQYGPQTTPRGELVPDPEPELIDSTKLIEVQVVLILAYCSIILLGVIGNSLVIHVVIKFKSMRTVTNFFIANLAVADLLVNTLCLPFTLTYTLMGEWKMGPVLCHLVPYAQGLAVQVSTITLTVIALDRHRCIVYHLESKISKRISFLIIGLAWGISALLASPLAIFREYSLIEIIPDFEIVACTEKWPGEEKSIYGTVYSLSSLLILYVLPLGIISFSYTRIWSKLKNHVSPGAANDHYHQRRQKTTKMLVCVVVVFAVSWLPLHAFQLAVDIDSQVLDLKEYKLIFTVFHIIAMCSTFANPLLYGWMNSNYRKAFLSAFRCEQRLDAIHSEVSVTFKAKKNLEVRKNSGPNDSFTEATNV
Format: cell membranes, KAN-TS, Membrane.

For data set [4], the target named is Matrix metalloproteinase-9 (Homo sapiens, UniProt P14780). Put plainly: biochemical. It is filed as cell-based.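 Also: inhibition of isolated MMP-9 enzyme activity toward a synthetic peptide substrate, from the DrugMatrix protease screening panel; in other assays of this panel Not Active means under 50% inhibition at 10 µM.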
Matrix metalloproteinase-9, sequence (P14780 whole entry): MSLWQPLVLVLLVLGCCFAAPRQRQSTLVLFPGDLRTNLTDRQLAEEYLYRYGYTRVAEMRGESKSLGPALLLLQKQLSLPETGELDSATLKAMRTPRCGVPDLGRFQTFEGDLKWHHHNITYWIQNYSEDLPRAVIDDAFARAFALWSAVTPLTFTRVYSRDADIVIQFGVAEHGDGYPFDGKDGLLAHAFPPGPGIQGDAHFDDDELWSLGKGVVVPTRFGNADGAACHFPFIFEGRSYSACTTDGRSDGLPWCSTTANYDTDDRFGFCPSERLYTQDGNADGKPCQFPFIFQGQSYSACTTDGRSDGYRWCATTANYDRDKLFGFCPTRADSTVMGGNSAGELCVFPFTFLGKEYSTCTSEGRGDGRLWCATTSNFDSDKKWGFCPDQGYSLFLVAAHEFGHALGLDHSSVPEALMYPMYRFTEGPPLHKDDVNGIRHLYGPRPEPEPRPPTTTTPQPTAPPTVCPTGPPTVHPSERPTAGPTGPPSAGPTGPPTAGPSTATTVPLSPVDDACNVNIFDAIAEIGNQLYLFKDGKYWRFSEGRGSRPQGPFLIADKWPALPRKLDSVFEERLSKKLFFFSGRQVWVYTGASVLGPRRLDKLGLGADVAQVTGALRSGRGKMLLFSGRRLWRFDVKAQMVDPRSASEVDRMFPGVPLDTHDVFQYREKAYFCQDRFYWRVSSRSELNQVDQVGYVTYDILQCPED
The next data set deals with Cytochrome P450 2D6 (Homo sapiens, UniProt P10635). As to conditions: bti-tn-5b1-4.
Cytochrome P450 2D6, sequence (P10635 whole entry): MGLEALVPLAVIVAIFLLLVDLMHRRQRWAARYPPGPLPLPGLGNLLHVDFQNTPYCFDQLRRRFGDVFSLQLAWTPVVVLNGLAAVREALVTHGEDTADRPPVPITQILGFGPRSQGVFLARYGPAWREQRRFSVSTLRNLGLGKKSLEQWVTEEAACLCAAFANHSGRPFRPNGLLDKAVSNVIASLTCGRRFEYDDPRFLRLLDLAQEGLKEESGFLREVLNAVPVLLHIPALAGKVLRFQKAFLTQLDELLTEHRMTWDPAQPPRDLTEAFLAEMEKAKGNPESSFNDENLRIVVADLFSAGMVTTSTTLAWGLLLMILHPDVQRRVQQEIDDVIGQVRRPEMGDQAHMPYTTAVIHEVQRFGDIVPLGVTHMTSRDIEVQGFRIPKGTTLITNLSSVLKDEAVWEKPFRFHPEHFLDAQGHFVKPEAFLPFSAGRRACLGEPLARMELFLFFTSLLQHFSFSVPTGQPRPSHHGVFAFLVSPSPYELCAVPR

Histamine H2 receptor, sequence (P25021 whole entry): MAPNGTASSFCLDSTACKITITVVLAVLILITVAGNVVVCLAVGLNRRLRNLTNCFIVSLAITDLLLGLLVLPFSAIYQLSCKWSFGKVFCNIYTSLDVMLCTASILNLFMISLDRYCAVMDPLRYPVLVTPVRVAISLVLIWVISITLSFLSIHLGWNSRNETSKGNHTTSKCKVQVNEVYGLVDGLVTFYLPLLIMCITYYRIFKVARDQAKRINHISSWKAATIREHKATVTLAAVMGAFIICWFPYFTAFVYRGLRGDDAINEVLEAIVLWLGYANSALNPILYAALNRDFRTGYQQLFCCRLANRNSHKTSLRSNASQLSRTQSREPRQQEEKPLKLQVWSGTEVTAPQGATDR

As to `Cc1c(C)c2c(c(C)c1O)CCC(C)(CN1CCN(c3cc(N4CCCC4)nc(N4CCCC4)n3)CC1)O2` (centres undefined), the IC50 entry (in data set [1]; against Histamine H2 receptor (cho-k1); in data set [2] (cho-k1); in data set [3] (kan-ts); in data set [4]) was “Not Active” throughout. The Ki (commonly a dissociation constant, usually derived from enzyme kinetics or from competition with a known ligand) in data set [1] is listed as “Not Active”.

Consider `COc1ccc(CCN(C)CCCC(C#N)(c2ccc(OC)c(OC)c2)C(C)C)cc1OC` (centres undefined), for which the IC50 result (in data set [1]; in data set [2] (cho-k1); in data set [3] (kan-ts); in data set [4]; against Cytochrome P450 2D6) was “Not Active” in each case. The Ki entry (in data set [1]; on Cytochrome P450 2D6) was “Not Active” throughout.

For the compound `CC(C)Cc1ccc([C@@H](C)C(=O)O)cc1` [(R)-IBUPROPHEN], the IC50 entry (in data set [1]; against Histamine H2 receptor (cho-k1); in data set [2] (cho-k1); in data set [3] (kan-ts); in data set [4]; on Cytochrome P450 2D6) was “Not Active” each time. Also, the Ki entry (in data set [1]; on Cytochrome P450 2D6) was “Not Active” throughout.

As for `CN(C)CCOC(c1ccccc1)c1ccccc1` [DIPHENHYDRAMINE], the half-maximal inhibitory concentration (IC50) result (against Histamine H2 receptor (cho-k1); in data set [3] (kan-ts); in data set [4]) was “Not Active” each time.

For the compound `Clc1ccc(COC(Cn2ccnc2)c2ccc(Cl)cc2Cl)cc1` (centres undefined) [ECONAZOLE], the IC50 (usually the point on the concentration scale where inhibition reaches its midpoint) was found to be 20.1 µM in data set [3] (read-out: IC50) and 7 µM in data set [4] (read-out: IC50). Moreover, the Ki in data set [3] (read-out: Ki) worked out at 11 µM.

Consider `CCN(CC)CCOc1ccc(/C(=C(/Cl)c2ccccc2)c2ccccc2)cc1` [ENCLOMIPHENE], for which the IC50 entry (against Histamine H2 receptor (cho-k1); in data set [3] (kan-ts); in data set [4]) was “Not Active” each time.

`Fc1ccc(C(c2ccc(F)cc2)N2CCN(C/C=C/c3ccccc3)CC2)cc1` [FLUNARIZINE]: the IC50 result (at Histamine H2 receptor (cho-k1); in data set [2] (cho-k1); in data set [3] (kan-ts); in data set [4]; against Cytochrome P450 2D6) was “Not Active” throughout. The Ki result on Cytochrome P450 2D6 is “Not Active”.

For the compound `CNCCC(Oc1ccc(C(F)(F)F)cc1)c1ccccc1` (centres undefined) [FLUOXETINE], the IC50 entry (on Histamine H2 receptor (cho-k1); in data set [2] (cho-k1); in data set [3] (kan-ts); in data set [4]) was “Not Active” each time.

With `Cc1ccc(NC(=O)c2ccc(CN3CCN(C)CC3)cc2)cc1Nc1nccc(-c2cccnc2)n1` [IMATINIB], the half-inhibitory concentration (IC50) was 1.96 µM on Histamine H2 receptor (read-out: IC50); “Not Active” in data set [2] (cho-k1); “Not Active” in data set [3] (kan-ts); “Not Active” in data set [4]; “Not Active” against Cytochrome P450 2D6. The inhibitory constant (Ki) at Histamine H2 receptor (read-out: Ki) is 1.93 µM; at Cytochrome P450 2D6, “Not Active”.

`CC(C)Oc1ccc2c(=O)c(-c3ccccc3)coc2c1` [IPRIFLAVONE]: the IC50 entry (in data set [1]; on Histamine H2 receptor (cho-k1); in data set [2] (cho-k1); in data set [3] (kan-ts); in data set [4]; against Cytochrome P450 2D6) was “Not Active” each time. Besides, the Ki result (in data set [1]; on Cytochrome P450 2D6) was “Not Active” throughout.

`CC(C)NCC(O)c1ccc(O)c(O)c1` (centres undefined) [ISOPROTERENOL]: the IC50 entry (in data set [1]; on Histamine H2 receptor (cho-k1); in data set [2] (cho-k1); in data set [3] (kan-ts); in data set [4]; at Cytochrome P450 2D6) was “Not Active” throughout. Besides, the Ki entry (in data set [1]; on Cytochrome P450 2D6) was “Not Active” throughout.

For the compound `CNC1(c2ccccc2Cl)CCCCC1=O` (centres undefined) [KETAMINE], the IC50 result (in data set [1]; on Histamine H2 receptor (cho-k1); in data set [2] (cho-k1); in data set [3] (kan-ts); in data set [4]; on Cytochrome P450 2D6) was “Not Active” in each case. The Ki entry (in data set [1]; on Cytochrome P450 2D6) was “Not Active” in each case.

In the case of `N#Cc1ccc(C(c2ccc(C#N)cc2)n2cncn2)cc1` [LETROZOLE], the IC50 result (in data set [1]; against Histamine H2 receptor (cho-k1); in data set [2] (cho-k1); in data set [3] (kan-ts); in data set [4]; against Cytochrome P450 2D6) was “Not Active” each time. The Ki entry (in data set [1]; on Cytochrome P450 2D6) was “Not Active” each time.

For the compound `CCN1CCC[C@H]1CNC(=O)c1cc(S(N)(=O)=O)ccc1OC` [LEVOSULPIRIDE], the IC50 entry (in data set [1]; against Histamine H2 receptor (cho-k1); in data set [2] (cho-k1); in data set [3] (kan-ts); in data set [4]; against Cytochrome P450 2D6) was “Not Active” in each case. Also, the Ki result (in data set [1]; on Cytochrome P450 2D6) was “Not Active” throughout.

Turning to `CCN(CC)CC(=O)Nc1c(C)cccc1C` [LIDOCAINE], the IC50 result (in data set [1]; against Histamine H2 receptor (cho-k1); in data set [2] (cho-k1); in data set [3] (kan-ts); in data set [4]) was “Not Active” throughout. Besides, the Ki entry in data set [1] is listed as “Not Active”.

`O=C1Nc2ccc(Cl)cc2C(c2ccccc2Cl)=NC1O` (centres undefined) [LORAZEPAM]: the IC50 entry (in data set [1]; against Histamine H2 receptor (cho-k1); in data set [2] (cho-k1); in data set [3] (kan-ts); in data set [4]; against Cytochrome P450 2D6) was “Not Active” each time. The Ki entry (in data set [1]; on Cytochrome P450 2D6) was “Not Active” in each case.

For `CO[C@@H]1[C@@H](OC)[C@H](C)[C@@](O)(CC(=O)O)O[C@H]1[C@H](C)[C@H]1O[C@@]2(CC[C@@](C)([C@H]3CC[C@@](C)([C@@H]4O[C@@H]([C@H]5O[C@](C)(O)[C@H](C)C[C@@H]5C)C[C@@H]4O[C@@H]4C[C@H](OC)[C@@H](OC)[C@H](C)O4)O3)O2)C[C@H](O)[C@H]1C` [MADURAMICIN ACID], the IC50 entry (in data set [1]; on Histamine H2 receptor (cho-k1); in data set [2] (cho-k1); in data set [3] (kan-ts); in data set [4]) was “Not Active” in each case. Also, the Ki result in data set [1] is recorded as “Not Active”.

As to `COc1c2occc2cc2ccc(=O)oc12` [METHOXSALEN], the IC50 entry (in data set [1]; on Histamine H2 receptor (cho-k1); in data set [2] (cho-k1); in data set [3] (kan-ts); in data set [4]; against Cytochrome P450 2D6) was “Not Active” each time. Also, the inhibition constant (Ki) entry (in data set [1]; on Cytochrome P450 2D6) was “Not Active” in each case.

As to `C[C@H]1C[C@@H]2[C@H]([C@@H](O)C[C@@]3(C)[C@H]2CC[C@]3(O)C(=O)CO)[C@@]2(C)C=CC(=O)C=C12` [METHYLPREDNISOLONE], the IC50 result (in data set [1]; against Histamine H2 receptor (cho-k1); in data set [2] (cho-k1); in data set [3] (kan-ts); in data set [4]) was “Not Active” in each case. For the same compound, the Ki entry in data set [1] is recorded as “Not Active”.

Turning to `Cc1cccc(C)c1OCC(C)N` (centres undefined) [MEXILETINE], the IC50 entry (in data set [1]; against Histamine H2 receptor (cho-k1); in data set [2] (cho-k1); in data set [3] (kan-ts); in data set [4]; against Cytochrome P450 2D6) was “Not Active” each time. The Ki result (in data set [1]; at Cytochrome P450 2D6) was “Not Active” in each case.

With `CN[C@H]1CC[C@@H](c2ccc(Cl)c(Cl)c2)c2ccccc21` [SERTRALINE], the IC50 entry on Histamine H2 receptor (cho-k1) was “Not Active”; in data set [2] (read-out: IC50) it was 2.77 µM; in data set [3] (kan-ts) it was “Not Active”; in data set [4], “Not Active”; on Cytochrome P450 2D6, “Not Active”. Further, the Ki in data set [2] (read-out: Ki) is 0.984 µM; on Cytochrome P450 2D6, “Not Active”.

Take `CN(C/C=C/C#CC(C)(C)C)Cc1cccc2ccccc12` [TERBINAFINE]: the IC50 entry (in data set [1]; at Histamine H2 receptor (cho-k1); in data set [2] (cho-k1); in data set [3] (kan-ts); in data set [4]) was “Not Active” each time. Further, the Ki result in data set [1] is on record as “Not Active”.

Regarding `CCCCNc1ccc(C(=O)OCCN(C)C)cc1` [TETRACAINE], the IC50 result (in data set [1]; against Histamine H2 receptor (cho-k1); in data set [2] (cho-k1); in data set [3] (kan-ts); in data set [4]) was “Not Active” throughout. The Ki result in data set [1] was “Not Active”.

With `Clc1ccccc1CN1CCc2sccc2C1` [TICLOPIDINE], the IC50 entry (in data set [1]; on Histamine H2 receptor (cho-k1); in data set [2] (cho-k1); in data set [3] (kan-ts); in data set [4]) was “Not Active” in each case. The Ki result in data set [1] was “Not Active”.

On to SODIUM ORTHOVANAD, for which the IC50 entry (at Histamine H2 receptor (cho-k1); in data set [2] (cho-k1); in data set [3] (kan-ts); in data set [4]; against Cytochrome P450 2D6) was “Not Active” each time. Also, the Ki entry (at Histamine H2 receptor (cho-k1); in data set [2] (cho-k1); in data set [3] (kan-ts); in data set [4]; on Cytochrome P450 2D6) was “Not Active” in each case.
